Experiment: xn = mol fraction of the nth substance listed
Details: 101 kPa, Liquid, Vibrating tube method

[2H]C(C)O (stereo not given) [ethanol-1-d] + [2H]O[2H]
mass density [kg/m3]
Details | 278.15 K | 288.15 K | 298.15 K | 308.15 K | 318.15 K
x2 = 0.001004 | 819.11 | 810.48 | 801.72 | 792.83 | 783.78
x2 = 0.00168 | 819.21 | 810.58 | 801.83 | 792.94 | 783.89
x2 = 0.00308 | 819.43 | 810.8 | 802.05 | 793.15 | 784.1
x2 = 0.005192 | 819.67 | 811.12 | 802.37 | 793.47 | 784.42
x2 = 0.008159 | 820.22 | 811.58 | 802.83 | 793.93 | 784.87
x2 = 0.01089 | 820.65 | 812.01 | 803.25 | 794.34 | 785.28
x2 = 0.01426 | 821.17 | 812.53 | 803.76 | 794.86 | 785.79
x2 = 0.0173 | 821.64 | 813 | 804.23 | 795.32 | 786.25
x2 = 0.02028 | 822.1 | 813.46 | 804.69 | 795.77 | 786.7
x2 = 0.02325 | 822.56 | 813.91 | 805.14 | 796.22 | 787.14
x2 = 0.02639 | 823.05 | 814.4 | 805.62 | 796.7 | 787.61
x2 = 0.03026 | 823.65 | 814.99 | 806.21 | 797.28 | 788.19
x2 = 0.03472 | 824.23 | 815.57 | 806.78 | 797.85 | 788.76
x2 = 0.03723 | 824.72 | 816.06 | 807.27 | 798.33 | 789.23

CCO [ethanol] + O
mass density [kg/m3]
Details | 278.15 K | 288.15 K | 298.15 K | 308.15 K | 318.15 K
x2 = 0.0009961 | 802.2 | 793.72 | 785.15 | 776.47 | 767.66
x2 = 0.002144 | 802.34 | 793.86 | 785.29 | 776.61 | 767.79
x2 = 0.004143 | 802.59 | 794.1 | 785.53 | 776.85 | 768.03
x2 = 0.00674 | 802.91 | 794.42 | 785.85 | 777.16 | 768.34
x2 = 0.009286 | 803.22 | 794.73 | 786.16 | 777.47 | 768.65
x2 = 0.01189 | 803.54 | 795.06 | 786.48 | 777.79 | 768.96
x2 = 0.01442 | 803.85 | 795.37 | 786.79 | 778.09 | 769.26
x2 = 0.01794 | 804.29 | 795.8 | 787.22 | 778.52 | 769.69
x2 = 0.02115 | 804.68 | 796.2 | 787.61 | 778.92 | 770.08
x2 = 0.02506 | 805.17 | 796.68 | 788.1 | 779.4 | 770.56
x2 = 0.0292 | 805.69 | 797.2 | 788.61 | 779.91 | 771.06
x2 = 0.03125 | 805.94 | 797.46 | 788.87 | 780.16 | 771.31
x2 = 0.0336 | 806.24 | 797.75 | 789.16 | 780.45 | 771.6
x2 = 0.03661 | 806.61 | 798.13 | 789.54 | 780.83 | 771.97
